Experimental data reported in article PMC11855478, “Bicyclic N,S-Acetals Containing Fused Cysteine-Amide System as New Heterocyclic Class Targeting Human Farnesyltransferase (FTase-h)” (International Journal of Molecular Sciences, 2025).

Key:
[1] = tested on: NCI-H23 (Non-Small Cell Lung Cancer); assay: NCI one dose, NCI-H23; type: cell-based, human; conditions: NCI-H23, 1.00E-5 Molar one dose
Procedure, shortened: (§1)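 Sulforhodamine B protein staining measured cell growth after cells from the NCI 60-line panel were exposed to compound for 48 h.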

CAKI-1 (Renal Cancer) = assay: NCI one dose, CAKI-1; type: cell-based, human; conditions: CAKI-1, 1.00E-5 Molar one dose
Procedure, shortened: as §1

SF-539 (CNS Cancer) = assay: NCI one dose, SF-539; type: cell-based, human; conditions: SF-539, 1.00E-5 Molar one dose
Procedure, shortened: as §1

A498 (Renal Cancer) = assay: NCI one dose, A498; type: cell-based, human; conditions: A498, 1.00E-5 Molar one dose
Procedure, shortened: as §1

SF-295 (CNS Cancer) = assay: NCI one dose, SF-295; type: cell-based, human; conditions: SF-295, 1.00E-5 Molar one dose
Procedure, shortened: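 Read-out: SRB staining. Exposure: 48 h. Cells: NCI panel of 60 human cancer lines.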

[2] = tested on: A549/ATCC (Non-Small Cell Lung Cancer); assay: NCI one dose, A549/ATCC; type: cell-based, human; conditions: 1.00E-5 Molar one dose
Procedure, shortened: as §1

SW-620 (Colon Cancer) = assay: NCI one dose, SW-620; type: cell-based, human; conditions: SW-620, 1.00E-5 Molar one dose
Procedure, shortened: as §1

MOLT-4 (Leukemia) = assay: NCI one dose, MOLT-4; type: cell-based, human; conditions: MOLT-4, 1.00E-5 Molar one dose
Procedure, shortened: as §1

HT29 (Colon Cancer) = assay: NCI one dose, HT29; type: cell-based, human; conditions: HT29, 1.00E-5 Molar one dose
Procedure, shortened: as §1

OVCAR-5 (Ovarian Cancer) = assay: NCI one dose, OVCAR-5; type: cell-based, human; conditions: OVCAR-5, 1.00E-5 Molar one dose
Procedure, shortened: as §1

SNB-75 (CNS Cancer) = assay: NCI one dose, SNB-75; type: cell-based, human; conditions: SNB-75, 1.00E-5 Molar one dose
Procedure, shortened: as §1

CCRF-CEM (Leukemia) = assay: NCI one dose, CCRF-CEM; type: cell-based, human; conditions: 1.00E-5 Molar one dose
Procedure, shortened: as §1

SK-MEL-28 (Melanoma) = assay: NCI one dose, SK-MEL-28; type: cell-based, human; conditions: SK-MEL-28, 1.00E-5 Molar one dose
Procedure, shortened: as §1

RXF 393 (Renal Cancer) = assay: NCI one dose, RXF 393; type: cell-based, human; conditions: RXF 393, 1.00E-5 Molar one dose
Procedure, shortened: as §1

SF-268 (CNS Cancer) = assay: NCI one dose, SF-268; type: cell-based, human; conditions: SF-268, 1.00E-5 Molar one dose
Procedure, shortened: as §1

HCC-2998 (Colon Cancer) = assay: NCI one dose, HCC-2998; type: cell-based, human; conditions: HCC-2998, 1.00E-5 Molar one dose
Procedure, shortened: as §1

OVCAR-3 (Ovarian Cancer) = assay: NCI one dose, OVCAR-3; type: cell-based, human; conditions: OVCAR-3, 1.00E-5 Molar one dose
Procedure, shortened: as §1

SK-MEL-2 (Melanoma) = assay: NCI one dose, SK-MEL-2; type: cell-based, human; conditions: SK-MEL-2, 1.00E-5 Molar one dose
Procedure, shortened: as §1

BT-549 (Breast Cancer) = assay: NCI one dose, BT-549; type: cell-based, human; conditions: BT-549, 1.00E-5 Molar one dose
Procedure, shortened: as §1

HCT-15 (Colon Cancer) = assay: NCI one dose, HCT-15; type: cell-based, human; conditions: HCT-15, 1.00E-5 Molar one dose
Procedure, shortened: as §1

SK-OV-3 (Ovarian Cancer) = assay: NCI one dose, SK-OV-3; type: cell-based, human; conditions: SK-OV-3, 1.00E-5 Molar one dose
Procedure, shortened: as §1

[3] = tested on: panel of 60 human cancer cell lines; assay: NCI 60 cell panel one dose screen (whole panel); type: cell-based; set-up: Delta (One Dose Mean Graph): unit not given here; conditions: 1.00E-5 Molar one dose; for Range (One Dose Mean Graph): in % (unit assumed); for Mean Growth Percent: mean over tested cell lines
Procedure, shortened: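 Single-dose screen at 10 µM across the NCI 60 human cancer cell line panel; 48 h compound exposure with growth measured by sulforhodamine B assay.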

DU-145 (Prostate Cancer) = assay: NCI one dose, DU-145; type: cell-based, human; conditions: DU-145, 1.00E-5 Molar one dose
Procedure, shortened: as §1

OVCAR-4 (Ovarian Cancer) = assay: NCI one dose, OVCAR-4; type: cell-based, human; conditions: OVCAR-4, 1.00E-5 Molar one dose
Procedure, shortened: as §1

[4] = tested on: NCI/ADR-RES (Ovarian Cancer); assay: NCI one dose, NCI/ADR-RES; type: cell-based, human; conditions: 1.00E-5 Molar one dose
Procedure, shortened: as §1

HCT-116 (Colon Cancer) = assay: NCI one dose, HCT-116; type: cell-based, human; conditions: HCT-116, 1.00E-5 Molar one dose
Procedure, shortened: as §1

U251 (CNS Cancer) = assay: NCI one dose, U251; type: cell-based, human; conditions: U251, 1.00E-5 Molar one dose
Procedure, shortened: as §1

SK-MEL-5 (Melanoma) = assay: NCI one dose, SK-MEL-5; type: cell-based, human; conditions: SK-MEL-5, 1.00E-5 Molar one dose
Procedure, shortened: as §1

[5] = tested on: NCI-H460 (Non-Small Cell Lung Cancer); assay: NCI one dose, NCI-H460; type: cell-based, human; conditions: NCI-H460, 1.00E-5 Molar one dose
Protocol: 3.4. Cell Proliferation Assay
Selected compounds were tested on a panel of 60 human cancer cell lines at the National Cancer Institute (NCI), Germantown, MD, USA. The cytotoxicity studies were conducted using a 48 h exposure protocol using the sulfo-rhodamine B assay.

[6] = tested on: NCI-H322M (Non-Small Cell Lung Cancer); assay: NCI one dose, NCI-H322M; type: cell-based, human; conditions: 1.00E-5 Molar one dose
Procedure, shortened: as §1

K-562 leukaemia cells = assay: NCI one dose, K-562; type: cell-based, human; conditions: K-562, 1.00E-5 Molar one dose
Procedure, shortened: as §1

Compound | Growth Percent [1] [%] | Growth Percent (CAKI-1 (Renal Cancer)) [%] | Growth Percent (SF-539 (CNS Cancer)) [%] | Growth Percent (A498 (Renal Cancer)) [%] | Growth Percent (SF-295 (CNS Cancer)) [%] | Growth Percent [2] [%] | Growth Percent (SW-620 (Colon Cancer)) [%] | Growth Percent (MOLT-4 (Leukemia)) [%] | Growth Percent (HT29 (Colon Cancer)) [%] | Growth Percent (OVCAR-5 (Ovarian Cancer)) [%] | Growth Percent (SNB-75 (CNS Cancer)) [%] | Growth Percent (CCRF-CEM (Leukemia)) [%] | Growth Percent (SK-MEL-28 (Melanoma)) [%] | Growth Percent (RXF 393 (Renal Cancer)) [%] | Growth Percent (SF-268 (CNS Cancer)) [%] | Growth Percent (HCC-2998 (Colon Cancer)) [%] | Growth Percent (OVCAR-3 (Ovarian Cancer)) [%] | Growth Percent (SK-MEL-2 (Melanoma)) [%] | Growth Percent (BT-549 (Breast Cancer)) [%] | Growth Percent (HCT-15 (Colon Cancer)) [%] | other results
COc1ccc(CNC(=O)[C@@H]2CS[C@H]3c4ccccc4C(=O)N23)cc1OC [4aI] | 92.75 | 95.39 | 102.96 | 89.23 | 101.16 | 74.91 | 102.54 | 99.18 | 80.71 | 102.57 | 95.63 | 94.08 | 110.57 | 110.33 | 104.77 | 105.82 | 116.00 | 80.08 | 108.27 | 109.55 | Growth Percent (SK-OV-3 (Ovarian Cancer)): 104.05%; Delta (One Dose Mean Graph) [3]: 34.91; Range (One Dose Mean Graph) [3]: 52.35; Mean Growth Percent [3]: 98.56%; Growth Percent (DU-145 (Prostate Cancer)): 107.46%; Growth Percent (OVCAR-4 (Ovarian Cancer)): 111.31%; Growth Percent [4]: 99.35%; Growth Percent (HCT-116 (Colon Cancer)): 98.84%; Growth Percent (U251 (CNS Cancer)): 93.84%; Growth Percent (SK-MEL-5 (Melanoma)): 102.31%; Growth Percent [5]: 111.19%; Growth Percent [6]: 101.37%; Growth Percent (K-562 leukaemia cells): 84.27%
COc1ccc(CNC(=O)[C@@H]2CS[C@@]3(C)c4ccccc4C(=O)N23)cc1 [4bF] | 96.08 | 85.69 | 105.73 | 96.46 | 93.44 | 80.46 | 106.66 | 76.38 | 84.10 | 107.98 | 94.53 | 93.94 | 106.19 | 95.28 | 98.37 | 101.61 | 108.61 | 93.38 | 106.11 | 101.20 | Growth Percent (SK-OV-3 (Ovarian Cancer)): 106.02%; Delta (One Dose Mean Graph) [3]: 24.39; Range (One Dose Mean Graph) [3]: 39.02; Mean Growth Percent [3]: 96.71%; Growth Percent (DU-145 (Prostate Cancer)): 105.22%; Growth Percent (OVCAR-4 (Ovarian Cancer)): 98.29%; Growth Percent [4]: 97.36%; Growth Percent (HCT-116 (Colon Cancer)): 93.74%; Growth Percent (U251 (CNS Cancer)): 93.45%; Growth Percent (SK-MEL-5 (Melanoma)): 103.30%; Growth Percent [5]: 110.45%; Growth Percent [6]: 107.95%; Growth Percent (K-562 leukaemia cells): 77.39%
C[C@@]12SC[C@@H](C(=O)NCc3ccccc3)N1C(=O)c1ccccc12 [4bA] | 98.21 | 89.87 | 95.44 | 91.48 | 98.04 | 78.86 | 108.38 | 93.49 | 80.95 | 97.87 | 88.09 | 95.36 | 105.22 | 108.00 | 109.78 | 113.03 | 119.90 | 92.83 | 106.90 | 98.84 | Growth Percent (SK-OV-3 (Ovarian Cancer)): 102.08%; Delta (One Dose Mean Graph) [3]: 22.99; Range (One Dose Mean Graph) [3]: 45.00; Mean Growth Percent [3]: 97.89%; Growth Percent (DU-145 (Prostate Cancer)): 110.52%; Growth Percent (OVCAR-4 (Ovarian Cancer)): 102.82%; Growth Percent [4]: 98.79%; Growth Percent (HCT-116 (Colon Cancer)): 97.31%; Growth Percent (U251 (CNS Cancer)): 92.28%; Growth Percent (SK-MEL-5 (Melanoma)): 102.19%; Growth Percent [5]: 111.12%; Growth Percent [6]: 96.63%; Growth Percent (K-562 leukaemia cells): 91.39%
COc1ccccc1CNC(=O)[C@@H]1CS[C@@]2(C)c3ccccc3C(=O)N12 [4bG] | 103.28 | 90.92 | 109.96 | 93.00 | 99.22 | 78.33 | 104.41 | 96.78 | 79.32 | 107.74 | 96.63 | 98.16 | 109.27 | 105.28 | 105.82 | 108.79 | 110.44 | 98.59 | 109.63 | 98.16 | Growth Percent (SK-OV-3 (Ovarian Cancer)): 99.44%; Delta (One Dose Mean Graph) [3]: 28.52; Range (One Dose Mean Graph) [3]: 40.41; Mean Growth Percent [3]: 98.55%; Growth Percent (DU-145 (Prostate Cancer)): 107.06%; Growth Percent (OVCAR-4 (Ovarian Cancer)): 95.75%; Growth Percent [4]: 102.18%; Growth Percent (HCT-116 (Colon Cancer)): 99.72%; Growth Percent (U251 (CNS Cancer)): 94.53%; Growth Percent (SK-MEL-5 (Melanoma)): 98.16%; Growth Percent [5]: 107.31%; Growth Percent [6]: 100.27%; Growth Percent (K-562 leukaemia cells): 85.09%
COc1cccc(CNC(=O)[C@@H]2CS[C@@]3(C)c4ccccc4C(=O)N23)c1 [4bE] | 98.91 | 85.65 | 104.59 | 85.49 | 97.61 | 76.25 | 104.85 | 85.50 | 89.19 | 110.33 | 98.09 | 94.80 | 112.92 | 107.08 | 106.18 | 107.01 | 115.54 | 97.24 | 110.64 | 102.87 | Growth Percent (SK-OV-3 (Ovarian Cancer)): 101.46%; Delta (One Dose Mean Graph) [3]: 31.41; Range (One Dose Mean Graph) [3]: 48.09; Mean Growth Percent [3]: 98.86%; Growth Percent (DU-145 (Prostate Cancer)): 106.55%; Growth Percent (OVCAR-4 (Ovarian Cancer)): 94.52%; Growth Percent [4]: 98.88%; Growth Percent (HCT-116 (Colon Cancer)): 104.89%; Growth Percent (U251 (CNS Cancer)): 100.00%; Growth Percent (SK-MEL-5 (Melanoma)): 101.12%; Growth Percent [5]: 104.83%; Growth Percent [6]: 102.58%; Growth Percent (K-562 leukaemia cells): 82.59%
